According to PubChem BioAssay AID1963426 (Molecular Pharmacology Branch, DTP, NCI, 2024):

Tested on: 186277-243-T-J2-PDC complex spheroid growth, % test/control
Assay: Anticancer human tumor 186277-243-T-J2-PDC patient-derived colon adenocarcinoma cell line growth inhibition [Asc]
Conditions: for IC50: curve of first compound; for viability, T/C: stronger effect = lower value
In short: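 Stromal components (HUVEC and hMSC) are co-assembled with the cancer cells into multicellular spheroids. Drugs are then added singly or paired, at concentrations falling by half-log increments from a clinically achievable maximum, capped at 10 microM without known Cmax.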
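Also: spheroids exposed to agents for 7 days.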
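For viability, T/C in this document: 100% = DMSO vehicle control wells.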

C#Cc1c(F)ccc2cc(O)cc(-c3ncc4c(N5CC6CCC(C5)N6)nc(OCC56CCCN5CC(F)C6)nc4c3F)c12 (stereo not given) + CCN1C(C(=O)NC23CCC(C(=O)O)(CC2)CC3)C(c2cccc(Cl)c2F)C2(C(=O)Nc3cc(Cl)ccc32)C12CCCCC2
IC50 (second compound 0.03 µM): 0.119 µM | IC50 (second compound 0.0949 µM): 0.0354 µM | IC50 (second compound 0.3 µM): < 0.0316 µM | IC50 (second compound 0.949 µM): < 0.0316 µM | IC50 (second compound 3 µM): < 0.0316 µM | viability, T/C (second compound 0.03 µM, first compound 0.0316 µM): 57.1% | viability, T/C (second compound 0.03 µM, first compound 0.1 µM): 55.3% | viability, T/C (second compound 0.03 µM, first compound 0.316 µM): 24.1% | viability, T/C (second compound 0.03 µM, first compound 1 µM): 7.49% | viability, T/C (second compound 0.03 µM, first compound 3.16 µM): 4.76% | viability, T/C (second compound 0.03 µM, first compound 10 µM): 2.76% | viability, T/C (second compound 0.0949 µM, first compound 0.0316 µM): 52.6% | viability, T/C (second compound 0.0949 µM, first compound 0.1 µM): 26.3% | viability, T/C (second compound 0.0949 µM, first compound 0.316 µM): 7.13% | viability, T/C (second compound 0.0949 µM, first compound 1 µM): 3.79% | viability, T/C (second compound 0.0949 µM, first compound 3.16 µM): 2.21% | viability, T/C (second compound 0.0949 µM, first compound 10 µM): 2.17% | viability, T/C (second compound 0.3 µM, first compound 0.0316 µM): 27.4% | viability, T/C (second compound 0.3 µM, first compound 0.1 µM): 8.1% | viability, T/C (second compound 0.3 µM, first compound 0.316 µM): 3.14% | viability, T/C (second compound 0.3 µM, first compound 1 µM): 2.06% | viability, T/C (second compound 0.3 µM, first compound 3.16 µM): 1.62% | viability, T/C (second compound 0.3 µM, first compound 10 µM): 1.41% | viability, T/C (second compound 0.949 µM, first compound 0.0316 µM): 16.2% | viability, T/C (second compound 0.949 µM, first compound 0.1 µM): 5.72% | viability, T/C (second compound 0.949 µM, first compound 0.316 µM): 2.81% | viability, T/C (second compound 0.949 µM, first compound 1 µM): 2.32% | viability, T/C (second compound 0.949 µM, first compound 3.16 µM): 1.53% | viability, T/C (second compound 0.949 µM, first compound 10 µM): 1.08% | viability, T/C (second compound 3 µM, first compound 0.0316 µM): 7.02% | viability, T/C (second compound 3 µM, first compound 0.1 µM): 3.62% | viability, T/C (second compound 3 µM, first compound 0.316 µM): 2.69% | viability, T/C (second compound 3 µM, first compound 1 µM): 2.2% | viability, T/C (second compound 3 µM, first compound 3.16 µM): 1.71% | viability, T/C (second compound 3 µM, first compound 10 µM): 1.33%
